We go through 24 compounds from patent US20080090805A1, “CB-1 MODULATING COMPOUNDS AND THEIR USE” (ACADIA PHARMACEUTICALS INC., priority 2005, published 2008).

For the test, the target named is native CB1 receptors (Rattus norvegicus, UniProt P20272). The experiment in a line: CB1 receptor rat binding assay ([3H]SR141716A, rat brain membranes). The note with it: rat brain membranes, [3H]SR141716A; for Ki: read-out: Binding rat pKi (converted).
Sequence of native CB1 receptors (P20272 whole entry): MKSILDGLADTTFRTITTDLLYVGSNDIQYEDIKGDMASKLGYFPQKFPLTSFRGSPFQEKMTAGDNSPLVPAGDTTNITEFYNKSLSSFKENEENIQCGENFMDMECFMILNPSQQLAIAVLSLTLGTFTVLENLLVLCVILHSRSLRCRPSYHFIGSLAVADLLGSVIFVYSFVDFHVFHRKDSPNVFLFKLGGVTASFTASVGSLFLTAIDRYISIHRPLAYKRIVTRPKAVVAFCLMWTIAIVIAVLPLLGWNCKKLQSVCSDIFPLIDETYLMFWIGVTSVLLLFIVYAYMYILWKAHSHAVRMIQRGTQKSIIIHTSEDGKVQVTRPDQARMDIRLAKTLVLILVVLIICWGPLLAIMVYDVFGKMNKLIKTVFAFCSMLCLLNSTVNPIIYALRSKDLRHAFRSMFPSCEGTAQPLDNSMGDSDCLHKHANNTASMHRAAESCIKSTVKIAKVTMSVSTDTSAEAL

As to `O=C(NCc1ccncc1)c1ccc2c(c1)N=C(c1ccc(Br)cc1)c1ccccc1S2` [drawing 1453], the “Binding rat Inh %” value is listed as 80% and the Ki was 50.1 nM. With `C[C@@H]1CCC[C@H](C)N1NC(=O)c1ccc2c(c1)N=C(c1ccccc1F)c1ccccc1S2` [drawing 1495], the “Binding rat Inh %” value was determined as 78% and the Ki was 63.1 nM. As to `O=C(NNCc1ccccc1)c1ccc2c(c1)N=C(c1cccc(Br)c1)c1ccccc1S2` [drawing 1505], the “Binding rat Inh %” value is on record as 66% and the Ki was 79.4 nM.

Consider `COc1ccc(C2=Nc3cc(C(=O)NC4CCCCC4)ccc3Sc3ccccc32)cc1` [drawing 1282], for which the “Binding rat Inh %” value was 91% and the Ki is 2 nM. Turning to `CCCCNC(=O)c1cc2c(cc1C)Sc1ccccc1C(c1ccc(Cl)cc1)=N2` [drawing 1243], the “Binding rat Inh %” value came to 119% and the Ki was 15.8 nM. Consider `CCCCNC(=O)c1ccc2c(c1)N=C(c1ccc(Cl)c(Cl)c1)c1ccccc1S2` [drawing 1311], for which the “Binding rat Inh %” value is 94% and the Ki is 3.16 nM. Take `O=C(NCc1cccs1)c1ccc2c(c1)N=C(c1ccc(Cl)s1)c1ccccc1S2` [drawing 1256]: the “Binding rat Inh %” value is 98% and the Ki is 1.26 nM.

As to `COCCNC(=O)c1ccc2c(c1)N=C(c1cccc(F)c1)c1ccccc1S2` [drawing 1468], the “Binding rat Inh %” value was determined as 86% and the Ki is 50.1 nM. Take `O=C(NCc1cccc(Cl)c1)c1ccc2c(c1)N=C(C1CCCCC1)c1ccccc1S2` [drawing 1338]: the Ki is 3.98 nM. As for `O=C(NC1CCCC1)c1ccc2c(c1)N=C(c1ccc(Cl)s1)c1ccccc1S2` [drawing 1542], the “Binding rat Inh %” value worked out at 91% and the Ki is 12.6 nM.

As to `CCCCNC(=O)c1ccc2c(c1)N=C(c1ccccn1)c1ccccc1S2` [drawing 1527], the “Binding rat Inh %” value amounted to 108% and the Ki was 79.4 nM. `CCCCNC(=O)c1ccc2c(c1)N=C(c1ccc(Cl)cc1Cl)c1ccccc1S2` [drawing 1406]: the “Binding rat Inh %” value is 98% and the Ki was 39.8 nM. For the compound `CCCCNC(=O)c1ccc2c(c1)N=C(c1cccc(Cl)c1)c1cc(Cl)ccc1S2` [drawing 1235], the “Binding rat Inh %” value stood at 89% and the Ki is 15.8 nM. On to `O=C(NN1CCCCC1)c1ccc2c(c1)N=C(c1ccc(Cl)cn1)c1ccccc1S2` [drawing 1373], for which the “Binding rat Inh %” value is recorded as 95% and the Ki was 31.6 nM. On to `O=C(NN1CCCCC1)c1ccc2c(c1)N=C(N1CCCCC1)c1ccccc1S2` [drawing 1397], for which the Ki was 39.8 nM. In the case of `CCN(CCNC(=O)c1ccc2c(c1)N=C(c1ccccc1F)c1ccccc1S2)c1ccccc1` [drawing 1302], the Ki was 20 nM. Take `O=C(NCc1ccccc1Cl)c1ccc2c(c1)N=C(c1ccccc1)c1ccccc1S2` [drawing 1324]: the Ki is 25.1 nM. Turning to `CCN(CCNC(=O)c1ccc2c(c1)N=C(N1CCCCC1)c1ccccc1S2)c1ccccc1` [drawing 1439], the Ki is 6.31 nM. In the case of `O=C(NCCc1ccc(Cl)cc1)c1ccc2c(c1)N=C(C1CCCCC1)c1ccccc1S2` [drawing 1280], the Ki was 2 nM. For `CCCNC(=O)c1ccc2c(c1)N=C(c1cccc(F)c1)c1ccccc1S2` [drawing 1286], the “Binding rat Inh %” value was 84% and the Ki was 20 nM. Regarding `O=C(NN1CCCCC1)c1ccc2c(c1)N=C(c1ccc(F)c(Cl)c1)c1ccccc1S2` [drawing 1321], the “Binding rat Inh %” value was 100% and the Ki was 3.16 nM. `O=C(NCc1ccc(F)cc1)c1ccc2c(c1)N=C(c1ccccc1F)c1ccccc1S2` [drawing 1299]: the Ki is 20 nM. As for `O=C(NCc1ccc(F)cc1)c1ccc2c(c1)N=C(c1ccc(Cl)cc1)c1ccccc1[S+]2[O-]` (stereo not drawn) [drawing 1301], the Ki was 20 nM. For `O=C(NCc1cccc(Cl)c1)c1ccc2c(c1)N=C(N1CCCCC1)c1cc(F)ccc1S2` [drawing 1181], the Ki is 12.6 nM.
